According to ChEMBL document CHEMBL1155854, “Conformationally constrained farnesoid X receptor (FXR) agonists: Naphthoic acid-based analogs of GW 4064” (Bioorg Med Chem Lett, 2008):
Values after ≈ are worked out from the molar mass of the structure shown. Active and inactive are the calls of the source. No cut-off for these calls is given here.

Experiments:
Rattus norvegicus = experiment: Reduction of serum gamma-glutamyl transferase level in alpha-naphthyl-isothiocyanate-induced rat acute cholestasis model at 100 to 300 mg/kg, po bid for 4 days dosed before 2 days induction by alpha-naphthyl-isothiocyanate; type: functional, organism-based
[1] = Solubility in simulated gastric fluid at pH 1; type: physicochemical; settings: simulated gi fluid
[2] = biological target: T1, Oxysterols receptor LXR-beta (Homo sapiens, UniProt P55055); experiment: Agonist activity at LXRbeta by transient transfection assay; type: functional
T1 sequence (P55055 whole entry): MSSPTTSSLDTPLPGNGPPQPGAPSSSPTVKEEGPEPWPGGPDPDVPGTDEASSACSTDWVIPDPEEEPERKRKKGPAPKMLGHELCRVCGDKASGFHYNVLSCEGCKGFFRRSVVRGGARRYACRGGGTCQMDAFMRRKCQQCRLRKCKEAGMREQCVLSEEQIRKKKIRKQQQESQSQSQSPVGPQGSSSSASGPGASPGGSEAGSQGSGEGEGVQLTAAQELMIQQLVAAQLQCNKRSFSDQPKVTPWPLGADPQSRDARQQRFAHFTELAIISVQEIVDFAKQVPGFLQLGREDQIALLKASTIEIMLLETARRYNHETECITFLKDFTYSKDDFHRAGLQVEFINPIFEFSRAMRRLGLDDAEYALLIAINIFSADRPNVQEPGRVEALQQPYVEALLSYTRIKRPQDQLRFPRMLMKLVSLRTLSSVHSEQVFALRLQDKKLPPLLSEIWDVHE

[3] = biological target: T2, Bile acid receptor (Homo sapiens) (UniProt Q96RI1); experiment: Agonist activity at FXR expressed in african green monkey CV1 cells by luciferase reporter transient transfection assay relative to GW-4064; type: functional, cell-based; settings: CV-1
T2 sequence (whole entry): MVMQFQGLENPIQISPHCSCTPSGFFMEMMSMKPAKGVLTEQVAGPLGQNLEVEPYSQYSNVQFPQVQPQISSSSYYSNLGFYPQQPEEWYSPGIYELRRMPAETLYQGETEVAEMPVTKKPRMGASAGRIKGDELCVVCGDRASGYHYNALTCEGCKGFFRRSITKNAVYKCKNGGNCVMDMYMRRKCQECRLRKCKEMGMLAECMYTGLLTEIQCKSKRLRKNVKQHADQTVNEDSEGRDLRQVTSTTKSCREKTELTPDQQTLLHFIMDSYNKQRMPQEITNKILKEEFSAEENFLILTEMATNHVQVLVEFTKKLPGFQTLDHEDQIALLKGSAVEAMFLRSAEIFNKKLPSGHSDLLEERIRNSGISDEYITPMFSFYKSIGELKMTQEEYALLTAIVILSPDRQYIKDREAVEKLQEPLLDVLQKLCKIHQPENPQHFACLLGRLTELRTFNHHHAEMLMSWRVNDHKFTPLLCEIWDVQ

[4] = Half life in iv dosed rat; type: ADME, organism-based; settings: in vivo
[5] = biological target: T3, Peroxisome proliferator-activated receptor delta (Homo sapiens, UniProt Q03181); experiment: Agonist activity at PPARdelta by transient transfection assay; type: functional
T3 sequence (Q03181 whole entry): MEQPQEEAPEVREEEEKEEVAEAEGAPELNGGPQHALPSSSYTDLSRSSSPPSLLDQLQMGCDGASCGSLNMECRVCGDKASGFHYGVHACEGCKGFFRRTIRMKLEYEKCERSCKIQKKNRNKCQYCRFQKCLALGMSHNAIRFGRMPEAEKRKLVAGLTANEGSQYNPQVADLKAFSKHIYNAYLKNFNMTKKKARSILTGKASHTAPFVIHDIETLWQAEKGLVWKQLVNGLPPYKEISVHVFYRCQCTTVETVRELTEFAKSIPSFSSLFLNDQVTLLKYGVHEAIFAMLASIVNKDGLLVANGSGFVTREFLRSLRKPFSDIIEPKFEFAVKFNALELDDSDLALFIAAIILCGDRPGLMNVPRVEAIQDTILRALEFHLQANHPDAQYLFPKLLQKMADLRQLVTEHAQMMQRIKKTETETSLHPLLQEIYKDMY

Estrogen receptor = biological target: T4, Estrogen receptor (Homo sapiens, UniProt P03372); experiment: Agonist activity at ERalpha by fluorescence polarization assay; type: functional
T4 sequence (P03372 whole entry): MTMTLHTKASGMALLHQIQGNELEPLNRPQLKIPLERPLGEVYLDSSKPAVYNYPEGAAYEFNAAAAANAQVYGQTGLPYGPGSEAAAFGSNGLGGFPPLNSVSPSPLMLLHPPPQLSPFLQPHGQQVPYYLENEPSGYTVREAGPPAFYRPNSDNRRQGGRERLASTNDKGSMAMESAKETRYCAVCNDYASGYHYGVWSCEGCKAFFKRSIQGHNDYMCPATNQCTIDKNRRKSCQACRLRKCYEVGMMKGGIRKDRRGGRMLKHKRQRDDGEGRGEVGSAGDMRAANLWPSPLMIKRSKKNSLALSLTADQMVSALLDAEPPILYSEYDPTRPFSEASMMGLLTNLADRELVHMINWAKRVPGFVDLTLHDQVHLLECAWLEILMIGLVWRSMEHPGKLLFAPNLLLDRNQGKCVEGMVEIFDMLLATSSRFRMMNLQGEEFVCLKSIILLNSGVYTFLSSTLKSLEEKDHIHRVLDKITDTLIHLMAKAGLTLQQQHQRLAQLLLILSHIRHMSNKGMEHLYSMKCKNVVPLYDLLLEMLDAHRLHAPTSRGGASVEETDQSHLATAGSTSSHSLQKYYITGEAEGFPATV

[6] = Half life in iv dosed Beagle dog; type: ADME, organism-based, Canis lupus familiaris; settings: in vivo
[7] = Clearance in iv dosed mouse; type: ADME, organism-based; settings: in vivo
Cytochrome P450 1A2 = biological target: T5, Cytochrome P450 1A2 (Homo sapiens, UniProt P05177); experiment: Inhibition of CYP1A2 in pooled human liver microsome; type: ADME, microsomes
T5 sequence (P05177 whole entry): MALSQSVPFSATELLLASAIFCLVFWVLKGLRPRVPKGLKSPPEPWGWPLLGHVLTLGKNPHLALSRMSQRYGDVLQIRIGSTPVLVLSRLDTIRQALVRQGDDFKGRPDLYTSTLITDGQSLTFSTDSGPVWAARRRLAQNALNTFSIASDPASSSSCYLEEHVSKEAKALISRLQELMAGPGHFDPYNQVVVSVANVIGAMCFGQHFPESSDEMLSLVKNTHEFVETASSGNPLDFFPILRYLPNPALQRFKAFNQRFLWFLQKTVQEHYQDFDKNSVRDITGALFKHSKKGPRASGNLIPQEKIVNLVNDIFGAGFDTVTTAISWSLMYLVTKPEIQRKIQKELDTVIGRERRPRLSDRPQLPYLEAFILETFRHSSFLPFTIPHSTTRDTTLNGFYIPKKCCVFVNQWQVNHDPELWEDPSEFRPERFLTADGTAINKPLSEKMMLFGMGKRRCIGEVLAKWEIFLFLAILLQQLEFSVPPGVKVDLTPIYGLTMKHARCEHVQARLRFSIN

[8] = Solubility in fasted state-simulated intestinal fluid at pH 6.5; type: physicochemical; settings: simulated gi fluid
[9] = biological target: Nuclear receptor subfamily 5 group A member 2 (Homo sapiens, UniProt O00482); experiment: Agonist activity at LRH assessed as receptor-coactivator peptide interaction by FRET assay; type: functional
Chain of Nuclear receptor subfamily 5 group A member 2 (O00482 whole entry): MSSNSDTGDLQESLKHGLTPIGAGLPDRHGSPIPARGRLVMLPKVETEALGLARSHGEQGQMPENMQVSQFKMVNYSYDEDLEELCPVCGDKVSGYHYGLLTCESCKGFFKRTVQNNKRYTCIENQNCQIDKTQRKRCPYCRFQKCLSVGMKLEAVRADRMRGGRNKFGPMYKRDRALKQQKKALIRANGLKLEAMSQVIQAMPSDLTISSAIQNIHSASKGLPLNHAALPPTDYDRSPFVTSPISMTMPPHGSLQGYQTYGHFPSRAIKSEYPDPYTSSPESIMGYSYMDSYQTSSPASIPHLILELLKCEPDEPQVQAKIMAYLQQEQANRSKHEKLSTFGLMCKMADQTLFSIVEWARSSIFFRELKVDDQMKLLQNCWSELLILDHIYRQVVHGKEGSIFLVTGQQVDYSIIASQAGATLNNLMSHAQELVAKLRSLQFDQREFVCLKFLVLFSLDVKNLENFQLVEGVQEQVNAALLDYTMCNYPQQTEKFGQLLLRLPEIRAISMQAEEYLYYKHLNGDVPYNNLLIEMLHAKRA

Bile acid receptor = biological target: T6, Bile acid receptor (Homo sapiens, UniProt Q96RI1); experiment: Agonist activity at FXR assessed as receptor-SRC-1 peptide interaction by FRET assay; type: functional
T6 sequence (Q96RI1 whole entry): T2 sequence (whole entry)

[10] = Oral bioavailability in cynomolgus monkey at 5 mg/kg; type: ADME, organism-based, Macaca fascicularis; settings: in vivo

solubility [1]: < 0.001 µg/mL | XC50 [2]: > 20 µM | %max [3]: 104% | half-life [4]: 0.4 h | XC50 [5]: > 10 µM | XC50 (Estrogen receptor): > 20 µM | half-life [6]: 4.17 h | clearance [7]: 7 mL/min/kg | IC50 (Cytochrome P450 1A2): 23 µM | solubility [8]: 1 µg/mL (≈ 1.88 µM) | XC50 [9]: > 10 µM | EC50 (Bile acid receptor): 0.087 µM | bioavailability [10]: 34%
Compound: CC(C)c1onc(-c2c(Cl)cccc2Cl)c1COc1ccc(-c2ccc3c(C(=O)O)cccc3c2)cc1
Activity (Rattus norvegicus): Active
